# Measurements from patent US20220022465A1, “METHODS AND COMPOSITIONS FOR REPELLING BIRDS IN CROP PLANTS” (Bayer Aktiengesellschaft, priority 2019, published 2022).
# Tested on: pigeons
# Experiment: Third repellency test 3.3, compared with pigeons offered untreated seeds in parallel at Day 0
# Assay type: in vivo
# Text: The test procedure was however slightly changed compared to the trials in Examples 3.1 and 3.2. Indeed, instead of simply comparing the effect of the tested compositions against the untreated seeds offered to the pigeons at Day-1, here a set of the pigeons was also offered untreated seeds at Day 0 in parallel to the set of pigeons being offered the seeds treated with a composition. The results for the set of pigeons having received the treated seeds are therefore compared to the results for the set of pigeons having received the untreated seeds in parallel at Day 0 (instead of the results for the set of the pigeons having received the untreated seeds at Day-1). Two trials under this setting have been performed with different compositions.
# Trial 1: • Black pepper at the dose of 40.5 ml/50000 corn seeds • Garlic at the dose of 4.5 ml/50000 corn seeds • Mixture of Black pepper (90%) and garlic (10%) at the dose of 45 ml/50000 corn seeds
# Trial 2: • Black pepper at the dose of 40.5 ml/50000 corn seeds • Garlic at the dose of 4.5 ml/50000 corn seeds • Mixture of Black pepper (90%) and garlic (10%) at the dose of 45 ml/50000 corn seeds • Thiram at the dose of 45 ml/50000 corn seeds
smiles,measurement,setting,value
CN(C)C(=S)SSC(=S)N(C)C [Thiram],Percentage (%) of reduction of feed consumption,"Trial 2, 45 ml per 50000 maize seeds",65%
same,"Repellency effect on seed consumption, in words","test 3.3, doses of Table 4",good repellency effect on seed consumption
